Values quoted from earlier work as cited in patent US5578629A, “Benzamide-containing inhibitors of farnesyl-protein transferase” (Merck & Co., Inc., priority 1995, dated 1996).

System: farnesyl-protein transferase
Conditions: via inhibition of HMG-CoA reductase

For `CC[C@H](C)C(=O)O[C@H]1C[C@@H](C)C=C2C=C[C@H](C)[C@H](CC[C@@H]3C[C@@H](O)CC(=O)O3)[C@H]21` [lovastatin], which “Indirect inhibition of farnesyl-protein transferase in vivo” value is on record?
The value was “Indirect inhibition of farnesyl-protein transferase in vivo has been demonstrated”.

Which “Indirect inhibition of farnesyl-protein transferase in vivo” value does the source give for `CC[C@H](C)C(=O)O[C@H]1CCC=C2C=C[C@H](C)[C@H](CC[C@@H]3C[C@@H](O)CC(=O)O3)[C@H]21` [compactin] here?
The value was “Indirect inhibition of farnesyl-protein transferase in vivo has been demonstrated”.
